In US20130302442A1, “METHODS OF USING (4S,4AS,5AR,12AS)-4-DIMETHYLAMINO-3,10,12,12A-TETRAHYDROXY-7-[(METHOXY(METHYL)AMINO)-METHYL]-1,11-DIOXO-1,4,4A,5,5A,6,11,12A-OCTAHYDRO-NAPHTHACENE-2-CARBOXYLIC ACID AMIDE” (priority 2012, published 2013):
≈ marks a conversion by molar mass, not a printed value. Read-outs that look alike come from different tables or passages of the source.

How the values were obtained:
Bifidobacterium infantis = experiment: In vitro MIC testing against anaerobic bacteria; format: cell-based; details: ATCC15702; Bifidobacterium infantis 3966, ATCC 15702
Lactobacillus plantarum = experiment: In vitro MIC testing against anaerobic bacteria; format: cell-based; details: Lactiplantibacillus plantarum, ATCC39268; Lactobacillus plantarum 2791, ATCC 39268
[1] = system: Streptococcus constellatus; experiment: In vitro MIC testing against anaerobic bacteria; format: cell-based; details: Streptococcus constellatus, ATCC27823
Bacteroides ovatus = experiment: In vitro MIC testing against anaerobic bacteria; format: cell-based
Bacteroides vulgatus = experiment: In vitro MIC testing against anaerobic bacteria; format: cell-based
Eikenella corrodens = experiment: In vitro MIC testing against anaerobic bacteria; format: cell-based; details: ATCC43278
Prevotella spp. = experiment: In vitro MIC testing against anaerobic bacteria; format: cell-based
P. acnes = experiment: In vitro MIC testing, antibacterial spectrum of activity; format: cell-based, Propionibacterium acnes; details: for MIC50: read-out: MIC50; for MIC90: read-out: MIC90
S. aureus = experiment: as above; format: cell-based, Staphylococcus aureus; details: for MIC50 / MIC90 / MIC: Staphylococcus aureus; for MIC50: read-out: MIC50; for MIC90: read-out: MIC90
Chlamydia trachomatis [2] = experiment: In vitro susceptibility testing of Chlamydia trachomatis in HEp-2 cells (first study); format: cell-based; details: Chlamydia trachomatis, C. trachomatis strains, read-out: MIC at which 90% of the strains were inhibited (MIC90)
[3] = system: methicillin-sensitive S. aureus (MSSA); experiment: In vitro MIC against isolates of MSSA; format: cell-based, Staphylococcus aureus
[4] = system: hospital-associated methicillin-resistant S. aureus (MRSA-HA); experiment: In vitro MIC against isolates of MRSA-HA; format: cell-based, Staphylococcus aureus; details: MRSA-HA (33 isolates)
[5] = system: community-acquired methicillin-resistant S. aureus (MRSA-CA); experiment: In vitro MIC against isolates of MRSA-CA; format: cell-based, Staphylococcus aureus
Chlamydia trachomatis [6] = experiment: Susceptibility testing (MIC, MBC) of 10 isolates of C. trachomatis in HEp-2 cells; format: cell-based
Chlamydia pneumoniae = experiment: Susceptibility testing (MIC, MBC) of 10 isolates of C. pneumoniae in HEp-2 cells; format: cell-based
E. cloacae = experiment: In vitro MIC testing, antibacterial spectrum of activity; format: cell-based; details: Enterobacter cloacae; E. cloacae (30 isolates)
Salmonella Spp. = experiment: as above; format: cell-based; details: Salmonella
[7] = Bacteroides ovatus 3503, read-out: MIC
[8] = Bacteroides ovatus 3508, read-out: MIC
[9] = Phocaeicola vulgatus, Bacteroides vulgatus 3389, read-out: MIC
[10] = Cutibacterium acnes, P. acnes [clinical isolates] (55 isolates)
[11] = Cutibacterium acnes, P. acnes [tetS] (13 isolates)
[12] = MRSA, S. aureus [MRSA] (31 isolates)
[13] = MSSA, S. aureus [MSSA] (32 isolates)
[14] = Staphylococcus aureus, MRSA-CA (33 isolates)

`C[C@H]1c2cccc(O)c2C(=O)C2=C(O)[C@]3(O)C(=O)C(C(N)=O)=C(O)[C@@H](N(C)C)[C@@H]3[C@@H](O)[C@@H]21` [Doxycycline, doxycycline] gave an MIC (Bifidobacterium infantis) of 0.5 µg/mL (≈ 1.13 µM), an MIC (Lactobacillus plantarum) of 2 µg/mL (≈ 4.5 µM) and an MIC [1] of 16 µg/mL (≈ 36 µM). It also gave an MIC (Bacteroides ovatus; [7]) of 8 µg/mL (≈ 18 µM), an MIC (Bacteroides ovatus; [8]) of 0.12 µg/mL (≈ 0.27 µM) and an MIC (Bacteroides vulgatus; Bacteroides vulgatus 3494) of 8 µg/mL (≈ 18 µM). It also gave an MIC (Bacteroides vulgatus; [9]) of 8 µg/mL (≈ 18 µM), an MIC (Eikenella corrodens; Eikenella corrodens 1206, ATCC 43278, read-out: MIC) of 0.12 µg/mL (≈ 0.27 µM) and an MIC (Prevotella spp.; Prevotella spp. 3564) of 1 µg/mL (≈ 2.25 µM). It also gave an MIC (Prevotella spp.; Prevotella spp. 3568) of 1 µg/mL (≈ 2.25 µM), an MIC (P. acnes; Cutibacterium acnes) of 8 µg/mL (≈ 18 µM) and an MIC50 (P. acnes; [10]) of 0.5 µg/mL (≈ 1.13 µM). It also gave an MIC90 (P. acnes; [10]) of 2 µg/mL (≈ 4.5 µM), an MIC50 (P. acnes; [11]) of 0.25 µg/mL (≈ 0.563 µM) and an MIC90 (P. acnes; [11]) of 1 µg/mL (≈ 2.25 µM). For the same molecule, the “MIC Range” value (P. acnes; P. acnes [clinical isolates] (55 isolates)) was 0.25 to 16 µg/mL, the “MIC Range” value (P. acnes; P. acnes [tetR] (2 isolates)) was 8-8 μg/mL and the “MIC Range” value (P. acnes; P. acnes [tetS] (2 isolates)) was 0.12 to 0.5 µg/mL. For the same molecule, the “MIC Range” value (P. acnes; P. acnes [tetS] (13 isolates)) was 0.25 to 1 µg/mL, the “MIC Range” value (S. aureus; S. aureus [MRSA] (31 isolates)) was 0.12 to 2 µg/mL and the “MIC Range” value (S. aureus; S. aureus [MSSA] (32 isolates)) was 0.12 to 8 µg/mL. The “MIC Range” value (S. aureus; S. aureus [tetR] (10 isolates)) was 1 to 16 µg/mL, the “MIC Range” value (S. aureus; S. aureus [tetS] (20 isolates)) was “≦0.06-0.25 μg/mL” and the MIC50 (S. aureus; [12]) was 0.12 µg/mL (≈ 0.27 µM). It also gave an MIC90 (S. aureus; [12]) of 0.25 µg/mL (≈ 0.563 µM), an MIC50 (S. aureus; [13]) of 0.12 µg/mL (≈ 0.27 µM) and an MIC90 (S. aureus; [13]) of 0.25 µg/mL (≈ 0.563 µM). The MIC50 (S. aureus; S. aureus [tetR] (10 isolates)) was 4 µg/mL (≈ 9 µM), the MIC90 (S. aureus; S. aureus [tetR] (10 isolates)) was 16 µg/mL (≈ 36 µM) and the MIC50 (S. aureus; S. aureus [tetS] (20 isolates)) was no more than 0.06 µg/mL. It also gave an MIC90 (S. aureus; S. aureus [tetS] (20 isolates)) of 0.25 µg/mL (≈ 0.563 µM), an MIC (S. aureus; S. aureus strain PBS # 1309, tetK) of 2 µg/mL (≈ 4.5 µM) and an MIC (S. aureus; S. aureus strain PBS # 1310, tetM) of 16 µg/mL (≈ 36 µM). For the same molecule, the MIC (S. aureus; S. aureus strain PBS # 1739, tet38) was 2 µg/mL (≈ 4.5 µM), the MIC90 (Chlamydia trachomatis [2]) was 0.125 µg/mL (≈ 0.281 µM) and the “MIC Range” value ([3]; MSSA (34 isolates)) was 0.12 to 8 µg/mL. For the same molecule, the MIC50 ([3]; Staphylococcus aureus, MSSA (34 isolates)) was 0.25 µg/mL (≈ 0.563 µM), the MIC90 ([3]; Staphylococcus aureus, MSSA (34 isolates), read-out: MIC90) was 0.5 µg/mL (≈ 1.13 µM) and the MIC ([3]; Staphylococcus aureus, single strain of doxycycline-resistant MSSA) was 8 µg/mL (≈ 18 µM). For the same molecule, the “MIC Range” value [4] was 0.12 to 1 µg/mL, the MIC50 ([4]; Staphylococcus aureus) was 0.25 µg/mL (≈ 0.563 µM) and the MIC90 ([4]; Staphylococcus aureus) was 0.5 µg/mL (≈ 1.13 µM). The “MIC Range” value ([5]; MRSA-CA (33 isolates)) was 0.12 to 8 µg/mL, the MIC50 [5, 14] was 0.12 µg/mL (≈ 0.27 µM) and the MIC90 [5, 14] was 2 µg/mL (≈ 4.5 µM). For the same molecule, the MIC ([5]; Staphylococcus aureus, single strain of doxycycline-resistant MRSA-CA) was 8 µg/mL (≈ 18 µM), the “MIC Range” value (Chlamydia trachomatis [6]; 72 h) was 0.03 to 0.25 µg/mL and the MIC50 (Chlamydia trachomatis [6]; Chlamydia trachomatis, 72 h) was 0.06 µg/mL (≈ 0.135 µM). For the same molecule, the MIC90 (Chlamydia trachomatis [6]; Chlamydia trachomatis, 72 h) was 0.125 µg/mL (≈ 0.281 µM), the MBC (Chlamydia trachomatis [6]; Chlamydia trachomatis, after passage, read-out: MBC 90%) was 0.125 µg/mL (≈ 0.281 µM) and the “MBC Range” value (Chlamydia trachomatis [6]; after passage) was 0.03 to 0.25 µg/mL. The “MIC Range” value (Chlamydia pneumoniae; 72 h) was 0.0625 to 0.125 µg/mL, the MIC50 (Chlamydia pneumoniae; Chlamydia pneumoniae, 72 h) was 0.125 µg/mL (≈ 0.281 µM) and the MIC90 (Chlamydia pneumoniae; Chlamydia pneumoniae, 72 h) was 0.125 µg/mL (≈ 0.281 µM). The MBC (Chlamydia pneumoniae; Chlamydia pneumoniae, after passage, read-out: MBC 90%) was 0.5 µg/mL (≈ 1.13 µM), the “MBC 90%” value (Chlamydia pneumoniae; after passage) was 0.5 µg/mL (≈ 1.13 µM) and the “MBC Range” value (Chlamydia pneumoniae; after passage) was 0.25 to 0.5 µg/mL.

For `CN(C)c1ccc(O)c2c1C[C@H]1C[C@H]3[C@H](N(C)C)C(O)=C(C(N)=O)C(=O)[C@@]3(O)C(O)=C1C2=O` [Minocycline, minocycline], the MIC (Bifidobacterium infantis) was 0.25 µg/mL (≈ 0.546 µM), the MIC (Lactobacillus plantarum) was 0.5 µg/mL (≈ 1.09 µM) and the MIC (Bacteroides ovatus; [7]) was 4 µg/mL (≈ 8.74 µM). The MIC (Bacteroides ovatus; [8]) was 0.03 µg/mL (≈ 0.0656 µM), the MIC (Bacteroides vulgatus; Bacteroides vulgatus 3494) was 8 µg/mL (≈ 17.5 µM) and the MIC (Bacteroides vulgatus; [9]) was 8 µg/mL (≈ 17.5 µM). It also gave an MIC (Eikenella corrodens; Eikenella corrodens) of 0.03 µg/mL (≈ 0.0656 µM), an MIC (Prevotella spp.; Prevotella spp. 3564) of 0.25 µg/mL (≈ 0.546 µM) and an MIC (Prevotella spp.; Prevotella spp. 3568) of 0.25 µg/mL (≈ 0.546 µM). It also gave an MIC90 (E. cloacae) of 16 µg/mL (≈ 35 µM) and an MIC50 (Salmonella Spp.) of 2 µg/mL (≈ 4.37 µM).
